Drawing on patent US20250011368A1, “DLL3 TARGETING PEPTIDES AND CONSTRUCTS THEREOF” (MARIANA ONCOLOGY INC., priority 2023, published 2025), this text covers Kd for 8 molecules.

Numbered stars: 1 amine (or outer) side, 2 acyl side, 3 side chain; on linkers, the order of the positions; unused ones are H or OH. Bridge positions count the residues as written; N and C are the ends. Square brackets hold non-standard residues; d marks the D form. Peptide text beside a SMILES is read from it. * marks the point of attachment. X4 = O=C(O)CN1CCN(CC(=O)O)CCN(CC(=O)N[C@H]2CC[C@H](CC(=O)*)CC2)CCN(CC(=O)O)CC1; Ala(piperidin-4-yl) = O=C([C@H](CC1CCN([*:3])CC1)N[*:1])[*:2]; DOTA = O=C(O)CN1CCN(CC(=O)O)CCN(CC(=O)*)CCN(CC(=O)O)CC1; Phe(4-CF3) = N[C@@H](Cc1ccc(C(F)(F)F)cc1)C(=O)O; Trp(5-F) = N[C@@H](Cc1c[nH]c2ccc(F)cc12)C(=O)O; Trp(7-aza) = N[C@@H](Cc1c[nH]c2ncccc12)C(=O)O; Pro(trans-4-F) = O=C(O)[C@@H]1C[C@@H](F)CN1; Phe(4-F) = N[C@@H](Cc1ccc(F)cc1)C(=O)O; γGlu = O=C(O)[C@H](CCC(=O)[*:2])N[*:1]; 2Nal = N[C@@H](Cc1ccc2ccccc2c1)C(=O)O; Gly(4-THP) = N[C@H](C(=O)O)C1CCOCC1; tBuAla = CC(C)(C)C[C@H](N)C(=O)O; Cha = N[C@@H](CC1CCCCC1)C(=O)O; Chg = N[C@H](C(=O)O)C1CCCCC1; Nle = CCCC[C@H](N)C(=O)O; Aze = O=C(O)[C@@H]1CCN1; Sar = CNCC(=O)O Some results are limits rather than exact numbers.

This assay deals with T1, human DLL3 (Homo sapiens, UniProt Q9NYJ7).
T1 sequence (Q9NYJ7 27-618): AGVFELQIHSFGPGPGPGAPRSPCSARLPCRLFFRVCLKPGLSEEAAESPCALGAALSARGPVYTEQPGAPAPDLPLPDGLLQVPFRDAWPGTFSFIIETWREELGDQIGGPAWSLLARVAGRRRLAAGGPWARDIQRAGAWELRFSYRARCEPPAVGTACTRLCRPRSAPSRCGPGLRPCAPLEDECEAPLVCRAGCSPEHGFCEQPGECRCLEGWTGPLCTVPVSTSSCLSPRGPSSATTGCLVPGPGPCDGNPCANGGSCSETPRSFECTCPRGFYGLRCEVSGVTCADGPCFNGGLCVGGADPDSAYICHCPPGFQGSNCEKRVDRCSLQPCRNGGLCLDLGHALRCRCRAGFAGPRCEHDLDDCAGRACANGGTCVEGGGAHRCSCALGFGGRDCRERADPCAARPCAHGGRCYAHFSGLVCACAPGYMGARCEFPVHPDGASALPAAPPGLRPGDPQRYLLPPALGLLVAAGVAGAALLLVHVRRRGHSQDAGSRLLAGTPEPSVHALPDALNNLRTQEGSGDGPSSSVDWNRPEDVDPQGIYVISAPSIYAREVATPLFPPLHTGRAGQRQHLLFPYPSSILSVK
As to the kind of experiment: Affinity determination by Surface Plasmon Resonance (SPR). In kind it is binding. The settings on record: 25° C., biotinylated human DLL3 immobilized on streptavidin sensor chip, 1:1 binding model; read-out: SPR KD. In outline:
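Kinetic and affinity constants were derived by fitting sensorgrams to a 1:1 binding model. Graded compound concentrations flowed at 100 μL/minute in 20 mM phosphate running buffer with 2% DMSO over streptavidin-immobilized biotinylated human DLL3, reference-subtracted.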
For `CC(=O)N[C@@H](Cc1c[nH]c2ccc(F)cc12)C(=O)N[C@H](C(=O)N[C@@H](CC1CCCCC1)C(=O)N[C@H]1CSSC[C@@H](C(=O)N[C@@H](Cc2c[nH]c3ncccc23)C(=O)N2C[C@H](F)C[C@H]2C(=O)N[C@H](CCCCNC(=O)CN2CCN(CC(=O)O)CCN(CC(=O)O)CCN(CC(=O)O)CC2)C(N)=O)NC(=O)[C@H](CC(=O)O)NC(=O)[C@H](Cc2cnc[nH]2)NC(=O)[C@H](Cc2ccc(F)cc2)NC(=O)[C@H](CC(N)=O)NC(=O)[C@H](CC(N)=O)NC1=O)[C@@H](C)O` [compound 133, Ac-(5Fluoro-W)-T-(CHA)-C(3)-N-N-(4Fluoro-F)-H-D-C(3)-(7Aza-W)-(trans4Fluoro-P)-[D-Lys(DOTA)]-NH2] (Ac-[Trp(5-F)]T[Cha]CNN[Phe(4-F)]HDC[Trp(7-aza)][Pro(trans-4-F)][dK](DOTA)-NH2; disulfide 4-10), the Kd was in the range of 1 to 10 nM. The result for `CC(=O)N[C@@H](Cc1c[nH]c2ccccc12)C(=O)N[C@H](C(=O)N[C@H](C(=O)N[C@H]1CSSC[C@@H](C(=O)N[C@@H](Cc2c[nH]c3ncccc23)C(=O)N2CCC[C@H]2C(=O)N[C@H](CCCCNC(=O)CN2CCN(CC(=O)O)CCN(CC(=O)O)CCN(CC(=O)O)CC2)C(N)=O)NC(=O)[C@H](CC(=O)O)NC(=O)[C@H](Cc2cnc[nH]2)NC(=O)[C@H](Cc2ccc3ccccc3c2)NC(=O)[C@H](C)NC(=O)[C@H](CC(N)=O)NC1=O)C1CCCCC1)[C@@H](C)O` [compound 197, Ac-W-T-(Chg)-C(3)-N-A-(2Nal)-H-D-C(3)-(7-Aza-W)-P-[D-Lys(DOTA)]-NH2] (Ac-WT[Chg]CNA[2Nal]HDC[Trp(7-aza)]P[dK](DOTA)-NH2; disulfide 4-10) reads below 1 nM; that for `CC(=O)N[C@@H](Cc1c[nH]c2ccc(F)cc12)C(=O)N[C@H](C(=O)N[C@H](C(=O)N[C@H]1CSSC[C@@H](C(=O)N[C@@H](Cc2c[nH]c3ncccc23)C(=O)N2CC[C@H]2C(=O)N[C@H](CCCCNC(=O)CN2CCN(CC(=O)O)CCN(CC(=O)O)CCN(CC(=O)O)CC2)C(N)=O)NC(=O)[C@H](CC(=O)O)NC(=O)[C@H](Cc2cnc[nH]2)NC(=O)[C@H](Cc2ccc(C(F)(F)F)cc2)NC(=O)[C@H](CC(N)=O)NC(=O)[C@H](CC(N)=O)NC1=O)C1CCOCC1)[C@@H](C)O` [compound 139, Ac-(5Fluoro-W)-T-(THPG)-C(3)-N-N-(4CF3-F)-H-D-C(3)-(7Aza-W)-(Aze)-[D-Lys(DOTA)]-NH2] (Ac-[Trp(5-F)]T[Gly(4-THP)]CNN[Phe(4-CF3)]HDC[Trp(7-aza)][Aze][dK](DOTA)-NH2; disulfide 4-10), 1 to 10 nM. As for `CC[C@H](C)[C@H](NC(=O)[C@@H](NC(=O)[C@H](Cc1c[nH]c2ccccc12)NC(C)=O)[C@@H](C)O)C(=O)N[C@H]1CSSC[C@@H](C(=O)N[C@@H](Cc2c[nH]c3ccccc23)C(=O)N2CCC[C@H]2C(=O)N(C)CC(=O)N(C)CC(=O)N(C)CC(=O)N(C)CC(=O)N(C)CC(=O)N[C@H](CCCCNC(=O)CN2CCN(CC(=O)O)CCN(CC(=O)O)CCN(CC(=O)O)CC2)C(N)=O)NC(=O)[C@H](CC(=O)O)NC(=O)[C@H](Cc2cnc[nH]2)NC(=O)[C@H](Cc2ccc3ccccc3c2)NC(=O)[C@H](CC(N)=O)NC(=O)[C@H](CC(N)=O)NC1=O` [compound 371, Ac-W-T-I-C(3)-N-N-(2Nal)-H-D-C(3)-W-P-(Sar)5-[D-Lys(DOTA)]-NH2] (Ac-WTICNN[2Nal]HDCWP[Sar][Sar][Sar][Sar][Sar][dK](DOTA)-NH2; disulfide 4-10), the figure is below 1 nM; as for `CC[C@H](C)[C@H](NC(=O)[C@@H](NC(=O)[C@H](Cc1c[nH]c2ccccc12)NC(C)=O)[C@@H](C)O)C(=O)N[C@H]1CSSC[C@@H](C(=O)N[C@@H](Cc2c[nH]c3ccccc23)C(=O)N2CCC[C@H]2C(=O)N[C@@H](CCC(=O)N[C@H](CCCCNC(=O)CN2CCN(CC(=O)O)CCN(CC(=O)O)CCN(CC(=O)O)CC2)C(N)=O)C(=O)O)NC(=O)[C@H](CC(=O)O)NC(=O)[C@H](Cc2cnc[nH]2)NC(=O)[C@H](Cc2ccc3ccccc3c2)NC(=O)[C@H](CC(N)=O)NC(=O)[C@H](CC(N)=O)NC1=O` [compound 233, Ac-W-T-I-C(3)-N-N-(2Nal)-H-D-C(3)-W-P-gE-[D-Lys(DOTA)]-NH2] (Ac-WTICNN[2Nal]HDCWP[γGlu][dK](DOTA)-NH2; disulfide 4-10), below 1 nM; as for `CC(=O)N[C@@H](Cc1c[nH]c2ccccc12)C(=O)N[C@H](C(=O)N[C@@H](CC(C)(C)C)C(=O)N[C@H]1CSSC[C@@H](C(=O)N[C@@H](Cc2c[nH]c3ccccc23)C(=O)N2CCC[C@H]2C(=O)N[C@H](CCCCNC(=O)CN2CCN(CC(=O)O)CCN(CC(=O)O)CCN(CC(=O)O)CC2)C(N)=O)NC(=O)[C@H](CC(=O)O)NC(=O)[C@H](Cc2cnc[nH]2)NC(=O)[C@H](Cc2ccc3ccccc3c2)NC(=O)[C@H](CC(N)=O)NC(=O)[C@H](CC2CCNCC2)NC1=O)[C@@H](C)O` [compound 282, Ac-W-T-(t-Bu-Ala)-C(3)-[3-(4-piperidinyl)-Ala]-N-(2Nal)-H-D-C(3)-W-P-[D-Lys(DOTA)]-NH2] (Ac-WT[tBuAla]C[Ala(piperidin-4-yl)]N[2Nal]HDCWP[dK](DOTA)-NH2; disulfide 4-10), below 1 nM. Take `CCCC[C@H](NC(=O)[C@@H](NC(=O)[C@H](Cc1c[nH]c2ccc(F)cc12)NC(C)=O)[C@@H](C)O)C(=O)N[C@H]1CSSC[C@@H](C(=O)N[C@@H](Cc2c[nH]c3ncccc23)C(=O)N2C[C@H](F)C[C@H]2C(=O)N[C@H](CCCCNC(=O)CN2CCN(CC(=O)O)CCN(CC(=O)O)CCN(CC(=O)O)CC2)C(N)=O)NC(=O)[C@H](CC(=O)O)NC(=O)[C@H](Cc2cnc[nH]2)NC(=O)[C@H](Cc2ccc(F)cc2)NC(=O)[C@H](CC(N)=O)NC(=O)[C@H](CC(N)=O)NC1=O` [compound 132, Ac-(5Fluoro-W)-T-(Nle)-C(3)-N-N-(4Fluoro-F)-H-D-C(3)-(7Aza-W)-(trans4Fluoro-P)-[D-Lys(DOTA)]-NH2] (Ac-[Trp(5-F)]T[Nle]CNN[Phe(4-F)]HDC[Trp(7-aza)][Pro(trans-4-F)][dK](DOTA)-NH2; disulfide 4-10): the equilibrium dissociation constant (Kd) lay within 1 to 10 nM. The result for `CC(=O)N[C@@H](Cc1c[nH]c2ccccc12)C(=O)N[C@H](C(=O)N[C@H](C(=O)N[C@H]1CSSC[C@@H](C(=O)N[C@@H](Cc2c[nH]c3ccccc23)C(=O)N2CCC[C@H]2C(=O)N[C@H](CCCCNC(=O)C[C@H]2CC[C@H](NC(=O)CN3CCN(CC(=O)O)CCN(CC(=O)O)CCN(CC(=O)O)CC3)CC2)C(N)=O)NC(=O)[C@H](CC(=O)O)NC(=O)[C@H](Cc2c[nH]cn2)NC(=O)[C@H](Cc2ccc3ccccc3c2)NC(=O)[C@H](CC(N)=O)NC(=O)[C@H](CC2CCNCC2)NC1=O)C1CCCCC1)[C@@H](C)O` [compound 286, Ac-W-T-(Chg)-C(3)-[3-(4-piperidinyl)-Ala]-N-(2Nal)-H-D-C(3)-W-P-[D-Lys(Chx-DOTA)]-NH2] (Ac-WT[Chg]C[Ala(piperidin-4-yl)]N[2Nal]HDCWP[dK](X4)-NH2; disulfide 4-10) reads below 1 nM.
